# Measurements reported in paper PMC3701070 (PLoS ONE, 2013).
# Tests used:
# [1] = tested on: pMEK and pERK in HCT-116 (wild-type BRAF, mutant KRAS) cells; experiment: Western blot, paradoxical MAPK activation in HCT-116 cells; assay type: cell-based, human; settings: 100 or 300 nM dabrafenib, co-treatment with 50 nM or 5 nM trametinib, 1 h
# Experimental: Cells were lysed in 25 mM Tris-HCl pH 7.5, 2 mM EDTA, 2 mM EGTA, 1% Triton X-100, 0.1% SDS, 50 mM sodium-β-glycerophosphate, 2 mM Na3VO4, 12.5 mM sodium pyrophosphate, 2× Complete EDTA-free mini protease inhibitor tablets (Roche), 2× phosphatase inhibitor cocktails I and II (Sigma-Aldrich). Protein concentrations were determined by Bio-Rad DC™ or dye-based protein assays and lysates were resolved by SDS-PAGE (Invitrogen NuPAGE®) and transferred to PVDF membranes. Membranes were blocked with Odyssey® (LI-COR Biosciences) blocking buffer and incubated with primary antibodies overnight at 4°C. Blots were washed with PBS containing 0.1% Tween-20, incubated with secondary antibodies, and washed again prior to signal detection on a LI-COR Odyssey® reader.
# Lysates were immunoblotted for total ERK (tERK) and dual-phosphorylated ERK (ppERK) (B).
# HCT-116 = tested on: HCT-116; set-up: method as in PMID 21245089; settings: HCT-116 cells; read-out: gIC50; cited from earlier work
smiles,measurement,setting,value
"CC(=O)Nc1cccc(-n2c(=O)n(C3CC3)c(=O)c3c(Nc4ccc(I)cc4F)n(C)c(=O)c(C)c32)c1 [trametinib, reference compound]",effect on dabrafenib-induced pERK upregulation,[1],abolished
same,IC50,HCT-116,21 nM
